Results taken from patent US10030020B2, “Spirocycle compounds and methods of making and using same” (Abide Therapeutics, Inc., priority 2016, dated 2018).
Read-outs that look alike come from different tables or passages of the source.

Legend:
MAGL [1] = molecular target: T1, MAGL (Mus musculus (Mouse), UniProt O35678); experiment: In vitro competitive activity-based protein profiling (mouse brain membrane fraction or cell lysates), MAGL band; type: biochemical; details: for inhibition at 1 µM: read-out: MAGL % Inh 1 μM (mouse)
T1 sequence (O35678 whole entry): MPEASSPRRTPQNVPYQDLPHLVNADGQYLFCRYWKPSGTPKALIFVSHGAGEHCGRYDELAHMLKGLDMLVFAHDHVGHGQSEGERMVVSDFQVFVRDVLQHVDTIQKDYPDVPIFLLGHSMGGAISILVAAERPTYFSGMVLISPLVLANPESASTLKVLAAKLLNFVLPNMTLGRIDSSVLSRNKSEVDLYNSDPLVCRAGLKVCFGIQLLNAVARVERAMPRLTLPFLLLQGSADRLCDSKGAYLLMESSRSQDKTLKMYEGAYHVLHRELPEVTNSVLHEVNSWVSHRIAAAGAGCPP
Method: In Vitro Competitive Activity-Based Protein Profiling.
Proteomes (mouse brain membrane fraction or cell lysates) (50 μL, 1.0 mg/mL total protein concentration) were preincubated with varying concentrations of inhibitors at 37° C. After 30 min, FP—Rh (1.0 μL, 50 μM in DMSO) was added and the mixture was incubated for another 30 min at 37° C. Reactions were quenched with SDS loading buffer (50 μL-4×) and run on SDS-PAGE.

ABHD6 [2] = molecular target: T2, ABHD6 (Mus musculus (Mouse), UniProt Q8R2Y0); experiment: In vitro competitive activity-based protein profiling (mouse brain membrane fraction or cell lysates), ABHD6 band; type: biochemical; details: for inhibition at 1 µM: read-out: ABHD6 % Inh 1 μM (mouse)
T2 sequence (Q8R2Y0 whole entry): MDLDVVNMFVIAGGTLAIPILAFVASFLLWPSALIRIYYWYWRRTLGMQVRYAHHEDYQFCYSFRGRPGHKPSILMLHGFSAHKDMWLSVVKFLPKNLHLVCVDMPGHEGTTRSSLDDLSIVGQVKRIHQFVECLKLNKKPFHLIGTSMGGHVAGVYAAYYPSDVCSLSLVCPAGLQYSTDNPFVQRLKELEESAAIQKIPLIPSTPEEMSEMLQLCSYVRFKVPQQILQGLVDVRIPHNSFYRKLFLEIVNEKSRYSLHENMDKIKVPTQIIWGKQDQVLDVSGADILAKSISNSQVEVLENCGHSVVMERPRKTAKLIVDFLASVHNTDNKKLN
In short: (§1)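 Competitive ABPP: proteome 1.0 mg/mL protein + inhibitor, 30 min, 37° C; FP-Rh probe (stock 50 μM in DMSO) added, 30 min, 37° C; SDS quench, SDS-PAGE, fluorescent band intensity read.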

FAAH [3] = molecular target: T3, FAAH (Mus musculus (Mouse), UniProt O08914); experiment: In vitro competitive activity-based protein profiling (mouse brain membrane fraction or cell lysates), FAAH band; type: biochemical; details: for inhibition at 1 µM: read-out: FAAH % Inh 1 μM (mouse)
T3 sequence (O08914 whole entry): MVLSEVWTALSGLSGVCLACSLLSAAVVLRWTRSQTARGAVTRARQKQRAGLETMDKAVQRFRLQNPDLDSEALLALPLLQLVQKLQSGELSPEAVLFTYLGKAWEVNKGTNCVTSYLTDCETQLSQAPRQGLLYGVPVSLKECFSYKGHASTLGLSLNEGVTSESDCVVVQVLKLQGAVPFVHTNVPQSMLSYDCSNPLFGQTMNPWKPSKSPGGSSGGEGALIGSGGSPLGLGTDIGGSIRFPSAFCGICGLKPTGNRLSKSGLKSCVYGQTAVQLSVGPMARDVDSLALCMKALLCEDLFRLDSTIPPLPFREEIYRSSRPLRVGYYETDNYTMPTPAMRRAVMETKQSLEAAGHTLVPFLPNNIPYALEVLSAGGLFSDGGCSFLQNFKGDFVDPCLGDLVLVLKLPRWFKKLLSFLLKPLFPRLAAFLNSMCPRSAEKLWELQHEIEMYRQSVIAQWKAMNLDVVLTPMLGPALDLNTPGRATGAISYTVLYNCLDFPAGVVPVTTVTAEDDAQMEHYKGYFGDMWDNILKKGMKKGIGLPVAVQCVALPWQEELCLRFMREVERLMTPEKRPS
In short: as §1

MAGL [4] = molecular target: MAGL (Homo sapiens (Human), UniProt Q99685); experiment: In vitro competitive activity-based protein profiling (human prefrontal cortex or cell membrane fractions; hMAGL expressed in HEK293T cells); type: biochemical
Chain of MAGL (Homo sapiens (Human), UniProt Q99685) (Q99685 whole entry): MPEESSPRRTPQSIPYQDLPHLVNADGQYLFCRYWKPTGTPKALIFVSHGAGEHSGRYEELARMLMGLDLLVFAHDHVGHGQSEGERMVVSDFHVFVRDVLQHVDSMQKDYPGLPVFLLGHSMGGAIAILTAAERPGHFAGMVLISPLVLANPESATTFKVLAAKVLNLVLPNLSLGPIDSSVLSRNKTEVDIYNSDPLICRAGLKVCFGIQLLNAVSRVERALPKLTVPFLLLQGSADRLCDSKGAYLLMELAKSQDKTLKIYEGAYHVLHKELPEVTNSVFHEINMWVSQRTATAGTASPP
In short: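 Human prefrontal cortex or cell membrane proteomes (1.0-2.0 mg/mL), or lysates of HEK293T cells expressing hMAGL diluted into mock proteome, preincubated with inhibitor 30 min at 37° C. FP-Rh or JW912 probe then added for 30 min at room temperature. Residual labeling resolved by SDS-PAGE.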

MAGL [5] = molecular target: T1, MAGL; experiment: Mouse brain proteomes from inhibitor treated mice (oral gavage, sacrificed 4 h after administration, ABPP analysis); type: in vivo, mouse (C57Bl/6J); details: 5 mg/kg oral gavage
In short: (§2)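 Mice (wild-type C57Bl/6J) receive inhibitor by oral gavage, e.g. in PEG400/Ethanol/PBS (7/2/1). Each animal is killed 4 h later. Brain proteomes are prepared and analyzed by ABPP, giving % inhibition at 5 mg/kg.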

FAAH [6] = molecular target: T3, FAAH; experiment: Mouse brain proteomes from inhibitor treated mice (oral gavage, sacrificed 4 h after administration, ABPP analysis), FAAH; type: in vivo, mouse (C57Bl/6J); details: 5 mg/kg oral gavage
In short: as §2

ABHD6 [7] = molecular target: T2, ABHD6; experiment: Mouse brain proteomes from inhibitor treated mice (oral gavage, sacrificed 4 h after administration, ABPP analysis), ABHD6; type: in vivo, mouse (C57Bl/6J); details: 5 mg/kg oral gavage
In short: as §2

| Compound | inhibition at 1 µM (MAGL [1]; mouse proteome) [%] | inhibition at 1 µM (ABHD6 [2]; mouse proteome) [%] | inhibition at 1 µM (FAAH [3]; mouse proteome) [%] | IC50 (MAGL [4]; human proteome, competitive ABPP) [nM] | MAGL % Inh 5 mg/kg (mouse) (MAGL [5]) | FAAH % Inh 5 mg/kg (mouse) (FAAH [6]) | ABHD6 % Inh 5 mg/kg (mouse) (ABHD6 [7]) | inhibition at 1 µM (MAGL [1]; mouse) [%] | inhibition at 1 µM (ABHD6 [2]; mouse) [%] | inhibition at 1 µM (FAAH [3]; mouse) [%] | IC50 (MAGL [4]; human) [nM] | IC50 (MAGL [1]; mouse) [nM] | IC50 (ABHD6 [2]; mouse) [nM] | IC50 (FAAH [3]; mouse) [nM] |
| --- | --- | --- | --- | --- | --- | --- | --- | --- | --- | --- | --- | --- | --- | --- |
| O=C(O)[C@H]1CCCN(c2cc(C(F)(F)F)ccc2CN2CCCC23CCN(C(=O)OC(C(F)(F)F)C(F)(F)F)CC3)C1 [Example 217] | > 75 | < 25 | < 25 | < 100 | ### (### is ≥75%) | # (# is <25%) | # (# is <25%) |  |  |  |  |  |  |  |
| CC1(C(=O)O)CCCN(c2cc(CN3CCCC34CCN(C(=O)OC(C(F)(F)F)C(F)(F)F)CC4)cc(C(F)(F)F)c2)C1 (stereo not shown) [Example 221] |  |  |  |  | ### (### is ≥75%) | # (# is <25%) | # (# is <25%) | > 75 | < 25 | < 25 | < 100 |  |  |  |
| CC1(C(=O)O)CCN(c2cc(C(F)(F)F)ccc2CN2CCCC23CCN(C(=O)OC(C(F)(F)F)C(F)(F)F)CC3)C1 (stereo not shown) [Example 230] |  |  |  |  | ## (## is equal to or greater than 25% but less than 75%) | # (# is <25%) | # (# is <25%) | > 75 | < 25 | < 25 | < 100 |  |  |  |
| O=C(O)C1CCN(c2cc(F)cc(CN3CCCC34CCN(C(=O)OC(C(F)(F)F)C(F)(F)F)CC4)c2)CC1 [Example 236] |  |  |  |  | ### (### is ≥75%) | # (# is <25%) | # (# is <25%) | > 75 | < 25 | < 25 | < 100 |  |  |  |
| O=C(O)C1CCN(Cc2cc(C(F)(F)F)ccc2CN2CCCC23CCN(C(=O)OC(C(F)(F)F)C(F)(F)F)CC3)CC1 [Example 238] |  |  |  |  | ### (### is ≥75%) | # (# is <25%) | # (# is <25%) | > 75 | < 25 | < 25 | < 100 | 100 to 1000 | > 1000 | > 1000 |
| O=C(O)C1CCN(c2cc(S(F)(F)(F)(F)F)ccc2CN2CCCC23CCN(C(=O)OC(C(F)(F)F)C(F)(F)F)CC3)CC1 [Example 240] |  |  |  |  | ### (### is ≥75%) | # (# is <25%) | # (# is <25%) | > 75 | < 25 | < 25 | < 100 |  |  |  |
| O=C(O)C1CCN(Cc2cc(CN3CCCC34CCN(C(=O)OC(C(F)(F)F)C(F)(F)F)CC4)cc(C(F)(F)F)c2)CC1 [Example 244] |  |  |  |  | ### (### is ≥75%) | # (# is <25%) | # (# is <25%) | > 75 | < 25 | < 25 | < 100 |  |  |  |
| O=C(O)C1CCN(c2cc(OC(F)(F)F)ccc2CN2CCCC23CCN(C(=O)OC(C(F)(F)F)C(F)(F)F)CC3)CC1 [Example 248] |  |  |  |  | ### (### is ≥75%) | # (# is <25%) | # (# is <25%) | > 75 | < 25 | < 25 | < 100 |  |  |  |
| N#Cc1ccc(CN2CCCC23CCN(C(=O)OC(C(F)(F)F)C(F)(F)F)CC3)c(N2CCC(C(=O)O)CC2)c1 [Example 249] |  |  |  |  | ## (## is equal to or greater than 25% but less than 75%) | # (# is <25%) | # (# is <25%) | > 75 | < 25 | < 25 | < 100 |  |  |  |
| O=C(O)C1CCN(Cc2cc(CN3CCCC34CCN(C(=O)OC(C(F)(F)F)C(F)(F)F)CC4)cc(C(F)(F)F)c2)C1 (stereo not shown) [Example 253] |  |  |  |  | ## (## is equal to or greater than 25% but less than 75%) | # (# is <25%) | # (# is <25%) | > 75 | < 25 | < 25 | < 100 |  |  |  |
| CC1(C(=O)O)CN(c2cc(C(F)(F)F)ccc2CN2CCC3(CCN(C(=O)OC(C(F)(F)F)C(F)(F)F)CC3)C2)CCO1 (stereo not shown) [Example 256] |  |  |  |  | # (# is <25%) | # (# is <25%) | # (# is <25%) | > 75 | < 25 | < 25 | < 100 |  |  |  |
| O=C(O)C1CCN(Cc2cc(C(F)(F)F)ccc2CN2CCCC23CCN(C(=O)OC(C(F)(F)F)C(F)(F)F)CC3)C1 (stereo not shown) [Example 262] |  |  |  |  | ## (## is equal to or greater than 25% but less than 75%) | # (# is <25%) | # (# is <25%) | > 75 | < 25 | < 25 | < 100 |  |  |  |
| CS(=O)(=O)C1CCN(c2cc(C(F)(F)F)ccc2CN2CCCC23CCN(C(=O)OC(C(F)(F)F)C(F)(F)F)CC3)CC1 [Example 267] |  |  |  |  | # (# is <25%) | # (# is <25%) | # (# is <25%) | > 75 | ≥ 75 | < 25 | < 100 |  |  |  |
| CS(=O)(=O)C1CN(c2cc(C(F)(F)F)ccc2CN2CCCC23CCN(C(=O)OC(C(F)(F)F)C(F)(F)F)CC3)C1 [Example 268] |  |  |  |  | ## (## is equal to or greater than 25% but less than 75%) | # (# is <25%) | ## (## is equal to or greater than 25% but less than 75%) | > 75 | 25 to 75 | < 25 | < 100 |  |  |  |
| O=C(O)C1CCN(Cc2cc(CN3CCCC34CCN(C(=O)OC(C(F)(F)F)C(F)(F)F)CC4)cc(OC(F)(F)F)c2)CC1 [Example 269] |  |  |  |  | ## (## is equal to or greater than 25% but less than 75%) | # (# is <25%) | # (# is <25%) | > 75 | < 25 | < 25 | < 100 |  |  |  |
| O=C(O)C1CCN(Cc2cc(CN3CCCC34CCN(C(=O)OC(C(F)(F)F)C(F)(F)F)CC4)cc(OC(F)(F)F)c2)C1 (stereo not shown) [Example 270] |  |  |  |  | ## (## is equal to or greater than 25% but less than 75%) | # (# is <25%) | # (# is <25%) | > 75 | < 25 | < 25 | < 100 |  |  |  |
